Test system: spontaneously hypertensive rats (SHRs)
Test: Hypotensive effects elicited by co-administration of CS-866 and hydrochlorothiazide (telemetry blood pressure in SHRs)
Type: in vivo, rat
Details: male SHRs, in mmHg (unit assumed)
From the text: Hypotensive Effects Elicited by Co-Administration of CS-866 and Hydrochlorothiazide
Twenty-eight male spontaneously hypertensive rats aged 20 weeks (SHRs, SPF grade, purchased from Hoshino Laboratory Animals) were used. A transmitter of a telemeter (TA11PA-C40, DATA SCIENCES Inc.) was implanted in each SHR for recording blood pressure. After recovery from the surgical operations, blood pressure was monitored in the rats from the age of 24 weeks. The rats were orally given 0.5% carboxymethylceflulose solution (CMC, 2 ml/kg) for 7 successive days (once daily) by gavage. They were divided into 4 groups (7 SHRs per group) so as to give equally averaged blood pressure levels in the groups based on the blood pressure recorded on the 5th and 6th days after the CMC solution was initiated. The rats were orally treated with 0.5% CMC solution (2 ml/kg, control group) or test substance suspended in 0.5% CMC solution (2 ml/kg) for 14 successive days (once daily). Blood pressure was monitored 1 day prior to the drug administration and on the 7th and 14th days after the drug was initiated. The group composition, test substances, doses and blood pressure (the 24 hour mean blood pressure A standard error on the respective monitoring days) are summarized in Tables 1 and 2.
The test substances were hydrochlorothiazide (HCTZ), CS-866, and HCTZ and CS-866. HCTZ was prepared so as to be 10 mg/2 ml of final concentration with 0.5% CMC solution. CS-866 was suspended in 0.5% CMC solution so as to be at a final concentration of 1 mg/2 ml. CS-866 and HCTZ solution was prepared so as to be at a final concentration of [10 mg (HCTZ)+1 mg (CS-866)]/2 ml with 0.5% CMC solution.

[1] = 7th day after administration, oral once daily, HCTZ 10 mg/kg, CS-866 1 mg/kg, or both
[2] = 14th day after administration, oral once daily, HCTZ 10 mg/kg, CS-866 1 mg/kg, or both
[3] = 1 day before administration (baseline), oral, once daily, n=7 per group

Row | SMILES | Blood pressure levels (24 hour mean blood pressure ± standard error) [1] | Blood pressure levels (24 hour mean blood pressure ± standard error) [2] | Blood pressure levels (24 hour mean blood pressure ± standard error) [3]
1 | CCCc1nc(C(C)(C)O)c(C(=O)OCc2oc(=O)oc2C)n1Cc1ccc(-c2ccccc2-c2nnn[nH]2)cc1 [CS-866, (5-methyl-2-oxo-1,3-dioxolen-4-yl)methyl 4-(1-hydroxy-1-methylethyl)-2-propyl-1-[2′-(1H-tetrazol-5-yl)biphenyl-4-ylmethyl]imidazol-5-carboxylate] | 147 ± 4 | 148 ± 4 | 167 ± 6
2 | NS(=O)(=O)c1cc2c(cc1Cl)NCNS2(=O)=O [HCTZ, 6-chloro-3,4-dihydro-2H-1,2,4,-benzothiadiazin-7-sulfonamide 1,1-dioxide] | 152 ± 6 | 156 ± 6 | 165 ± 6
